According to ChEMBL document CHEMBL3244223, “Drug-induced modifications of the immune response. 1. Substituted 1-phenylisoquinolines” (1979):
“And” between values parts separate entries of the source, which are not always exact repeats. Equal values may be shown once. The source made the active and inactive calls. The rule behind the calls is not given here.

Experiments:
Rattus norvegicus [1] = experiment: Antiallergic activity in Sprague-Dawley rat assessed as inhibition of ovalbumin-induced wheal formation at 25 mg/kg, ip administered 5 mins prior to ovalbumin challenge measured after 30 mins by passive cutaneous anaphylaxis assay relative to control; assay type: functional; conditions: route intraperitoneal; for inhibition in vivo at 25 mg/kg: Rattus norvegicus, Sprague-Dawley, ip
Canis lupus familiaris = organism: Canis lupus familiaris; experiment: Inhibition of Mongrel dog ventricular muscle cAMP phosphodiesterase using adenosine 3',5' monophosphate as substrate at 100 uM by scintillation counting analysis in presence of [8-14C]adenosine relative to control
[2] = Antiallergic activity in antiovalbumin serum sensitized guinea pig lung slices assessed as inhibition of ovalbumin-induced histamine release at 100 uM preincubated for 5 mins followed by ovalbumin challenge measured after 15 mins by fluorometric analysis relative to control; assay type: functional, Cavia porcellus; conditions: for inhibition at 100 µM: Cavia porcellus, Lung
Rattus norvegicus [3] = experiment: Antiallergic activity in Sprague-Dawley rat assessed as inhibition of serotonin-induced wheal formation at 25 mg/kg, ip administered 5 mins prior to serotonin challenge measured 5 mins post serotonin challenge relative to control; assay type: functional
Rattus norvegicus [4] = experiment: Antiallergic activity in Sprague-Dawley rat assessed as inhibition of ovalbumin-induced wheal formation at 6 mg/kg, ip administered 5 mins prior to ovalbumin challenge measured after 30 mins by passive cutaneous anaphylaxis assay relative to control; assay type: functional; conditions: route intraperitoneal
Rattus norvegicus [5] = experiment: Antiallergic activity in ip dosed Sprague-Dawley rat assessed as inhibition of ovalbumin-induced wheal formation administered 5 mins prior to ovalbumin challenge measured after 30 mins by passive cutaneous anaphylaxis assay; assay type: functional
Rattus norvegicus [6] = experiment: Antiallergic activity in Sprague-Dawley rat assessed as inhibition of ovalbumin-induced wheal formation at 25 mg/kg, po administered 10 mins prior to ovalbumin challenge measured after 30 mins by passive cutaneous anaphylaxis assay relative to control; assay type: functional
[7] = Antiallergic activity in antiovalbumin serum sensitized guinea pig lung slices assessed as inhibition of ovalbumin-induced histamine release at 0.3 uM preincubated for 5 mins followed by ovalbumin challenge measured after 15 mins by fluorometric analysis relative to control; assay type: functional; conditions: Cavia porcellus
[8] = Antiallergic activity in antiovalbumin serum sensitized guinea pig lung slices assessed as inhibition of ovalbumin-induced histamine release at 1.5 mM preincubated for 5 mins followed by ovalbumin challenge measured after 15 mins by fluorometric analysis relative to control; assay type: functional; conditions: Cavia porcellus

| SMILES | inhibition (Canis lupus familiaris) | inhibition in vivo at 25 mg/kg (Rattus norvegicus [1]) | inhibition at 100 µM [2] | also measured |
| --- | --- | --- | --- | --- |
| COc1cc2c(cc1OCc1ccccc1)C(c1ccccc1)NCC2 (racemic) | 34% | 29% | 56% | inhibition in vivo at 25 mg/kg (Rattus norvegicus [3]; route intraperitoneal): 29% |
| O=C(O)c1cc(=O)c2c(OCC(O)COc3cccc4oc(C(=O)O)cc(=O)c34)cccc2o1 [CROMOLYN SODIUM] |  |  |  | inhibition in vivo at 6 mg/kg (Rattus norvegicus [4]): 52% |
| COc1cc2c(cc1OC)C(c1nccc3cc(OC)c(OC)cc13)OC2=O (stereo unspecified) | 33% | 16% |  |  |
| CI.COc1cc2c(cc1OC)C(c1ccccc1)=NCC2 |  | 22% |  | inhibition (INH) [2]: 63% |
| c1ccc(C2NCCc3ccccc32)cc1 (stereo unspecified) | 7% | 17% | 46% |  |
| COc1cc2c(cc1OC)C(C1CCCCC1)NCC2 (stereo unspecified) | 19% | 49% | 66% | inhibition in vivo at 25 mg/kg (Rattus norvegicus [6]): 8% |
| CC(C)NCC(O)c1ccc(O)c(O)c1 (stereo unspecified) [ISOPROTERENOL] |  |  |  | inhibition at 0.3 µM [7]: 49% |
| COc1cc2c(cc1OC)C(c1cccc(C(F)(F)F)c1)NCC2 (stereo unspecified) | 84% | 29% | 55% |  |
| c1ccc(C2=NCCc3ccccc32)cc1 | 42% | 0% | 17% |  |
| Cc1ccc2c(c1)C(c1ccccc1)NCC2 (stereo unspecified) | 4% | 51% | 0% | inhibition in vivo at 25 mg/kg (Rattus norvegicus [6]): 17% |
| Clc1ccc2c(c1)C(c1ccccc1)=NCC2 | 44% | 34% | 0% |  |
| Cn1c(=O)c2nc[nH]c2n(C)c1=O [THEOPHYLLINE] |  |  |  | inhibition at 1500 µM [8]: 50% |
| c1ccc2c(c1)CCNC2 | 0% | 18% | 31% |  |
| COc1ccc2c(c1)C(c1ccccc1)NCC2.Cl (stereo unspecified) | 12% | 41% | 60% | ED50 (Rattus norvegicus [5]): 24 mg/kg; inhibition in vivo at 25 mg/kg (Rattus norvegicus [6]): 40%; inhibition (Rattus norvegicus [3]): inactive |
| COc1cc2c(cc1O)C(c1ccccc1)NCC2 (stereo unspecified) | 19% | 43% | 25% | inhibition in vivo at 25 mg/kg (Rattus norvegicus [6]): 6% |
| Cn1c(=O)c2[nH]cnc2n(C)c1=O | 51% |  |  |  |
| COc1cc2c(cc1OC)C(c1ccccc1)=NCC2 [listing 2 of 2 here] |  |  |  | inhibition (INH) (Rattus norvegicus [1]): 31%; inhibition (INH) [2]: 91% |
| CCOC(=O)C(=O)N1CCc2cc(OC)c(OCc3ccccc3)cc2C1c1ccccc1 (stereo unspecified) | 0% | 18% | 0% |  |
| COc1cc2c(cc1OC)C(c1ccc(C(C)(C)C)cc1)NCC2.Cl (stereo unspecified) | 71% | 37% | 13% | ED50 (Rattus norvegicus [5]): 24 mg/kg; inhibition in vivo at 25 mg/kg (Rattus norvegicus [6]): 9%; inhibition (Rattus norvegicus [3]): inactive |

The next lines start with results.

| inhibition (Canis lupus familiaris) | SMILES | inhibition in vivo at 25 mg/kg (Rattus norvegicus [1]) | inhibition at 100 µM [2] | also measured |
| --- | --- | --- | --- | --- |
| 83% | COc1cc2c(cc1O)C(c1ccccc1)=NCC2 | 46% | 36% |  |
| 46% | COc1cc2c(cc1OC)C(c1ccccc1)NCC2.Cl (stereo unspecified) | 52% | 49% | ED50 (Rattus norvegicus [5]): 34 mg/kg; inhibition in vivo at 25 mg/kg (Rattus norvegicus [6]): 7%; inhibition (Rattus norvegicus [3]): inactive |
| 64% | COc1cc2c(cc1OC)C1C(=O)Cc3ccccc3CN1CC2 (stereo unspecified) | 18% | 43% |  |
| 97% and 91% | COc1cc2c(cc1OC)C(c1ccccc1)=NCC2 [listing 1 of 2 here] |  |  |  |
| 34% | COc1cc2c(cc1OC)C(c1ccccc1OC)NCC2 (stereo unspecified) | 24% | 46% |  |
| 53% | Cc1ccc2c(c1)C(c1ccccc1)=NCC2 | 23% | 6% |  |
| 95% | COc1cc2c(cc1OCc1ccccc1)C(c1ccccc1)=NCC2 | 36% | 18% |  |
| 70% | COc1cc2c(cc1OC)C(C1CCCCC1)=NCC2 | 18% |  |  |
| 45% | COc1cc2c(cc1OC)C(Cc1cc(OC)c(OCc3ccccc3)cc1Br)NCC2 (racemic) | 0% | 27% |  |
| 56% | COc1cc2c(cc1OC)C(c1ccccc1OC)=NCC2 | 36% |  |  |
| 95% | COc1cc2c(cc1OC)C(c1cccc(C(F)(F)F)c1)=NCC2 | 35% | 16% |  |
| 55% | COc1cc2c(cc1OC)C(Cc1cc(OCc3ccccc3)c(OC)cc1Br)NCC2 (racemic) | 0% | 33% |  |
